This note sets out measurements from ChEMBL document CHEMBL1201862, “PubChem BioAssay data set” (2004).

SMILES strings stand for the structures.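 Five compound concentrations were applied to cells in 96-well plates for 48 hours; endpoints were derived by simple linear interpolation of the resulting dose-response curve. GI50 marks 50% less growth.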 Activity calls are given as the source filed them. Cut-off read from the data, not from the text of the source: active = GI50 up to about 1.1 µM and inactive = higher.

Test systems include TK-10; RPMI-8226; SR; OVCAR-8; UO-31; U-251; SF-268; SNB-75; SN12C; A498; 786-0; HCC 2998; HOP-92; SK-MEL-2; SK-OV-3; A549; HCT-15.
Holding throughout (assay): NCI tumour cell line growth inhibition, 48 h

In the case of `CC(=O)C1CC=C(C)CC1` (configuration not stated), the GI50 with TK-10, in the experiment with RPMI-8226, with SR, in the experiment with OVCAR-8, in the experiment on UO-31 and in the experiment with U-251 was > 100 µM (inactive) throughout. In addition, the GI50 with SF-268, with SNB-75, in the experiment with SN12C, in the experiment on A498, with 786-0 and with HCC 2998 was > 100 µM (inactive) throughout. Also, the GI50 is > 100 µM (inactive) in the experiment on HOP-92; > 100 µM (inactive) in the experiment on SK-MEL-2; > 100 µM (inactive) in the experiment with SK-OV-3; > 100 µM (inactive) with A549; above 100 µM in the experiment with HCT-15.
With `Clc1ccccc1C(n1cc(Br)cn1)n1cc(Br)cn1`, the GI50 is 23.6 µM (inactive) in the experiment on TK-10; 13.6 µM (inactive) with RPMI-8226; 18.8 µM (inactive) with SR; 19.3 µM (inactive) with OVCAR-8; 12.6 µM (inactive) in the experiment with UO-31; 18.5 µM (inactive) in the experiment with U-251. Also, the GI50 in the experiment with SF-268 is > 10 µM (inactive); with SNB-75, 5.81 µM (inactive); with SN12C, 16.3 µM (inactive); with A498, 17.1 µM (inactive); in the experiment with 786-0, > 10 µM (inactive); with HCC 2998 it was > 10 µM (inactive). Besides, the GI50 is 7.48 µM (inactive) with HOP-92, 18.2 µM (inactive) with SK-MEL-2, > 10 µM (inactive) with SK-OV-3 and above 10 µM with HCT-15.
As to `CCC/C=C\C=C\C1(NS(=O)(=O)c2ccc(C)cc2)CCC(C(C)(C)C)CC1` (configuration not stated), the GI50 in the experiment with TK-10 was 24.9 µM (inactive); in the experiment with RPMI-8226 it was 7.96 µM (inactive); in the experiment on SR, 3.15 µM (inactive); with OVCAR-8, > 10 µM (inactive); with UO-31, 23.7 µM (inactive); in the experiment on U-251, 12.5 µM (inactive). Also, the GI50 in the experiment on SF-268 is 17.4 µM (inactive); with SNB-75, 23.4 µM (inactive); in the experiment on SN12C it was 11.2 µM (inactive); in the experiment with A498, 21.2 µM (inactive); in the experiment on 786-0, 10.2 µM (inactive); in the experiment with HCC 2998, 16.9 µM (inactive). For the same compound, the GI50 in the experiment on HOP-92 is 22.9 µM (inactive); in the experiment with SK-MEL-2, 13.5 µM (inactive); in the experiment on SK-OV-3 it was 26.7 µM (inactive); with A549, 15.4 µM (inactive); in the experiment with HCT-15, 17.5 µM.
As for `O=C1C=CC(=O)C2C1Cc1ccccc1C2c1ccccc1` (configuration not stated), the GI50 in the experiment on TK-10 was 74.1 µM (inactive); with RPMI-8226, 22.3 µM (inactive); with SR, 23.7 µM (inactive); in the experiment on OVCAR-8, 25.9 µM (inactive); in the experiment on UO-31 it was 47.1 µM (inactive); in the experiment with U-251, 18.2 µM (inactive). Moreover, the GI50 with SF-268 is 53.1 µM (inactive); in the experiment with SNB-75 it was 42.7 µM (inactive); with SN12C, 39.7 µM (inactive); in the experiment with A498, 22.4 µM (inactive); in the experiment on 786-0 it was 38.5 µM (inactive); in the experiment on HCC 2998, 21.7 µM (inactive). Also, the GI50 with HOP-92 is 32 µM (inactive); with SK-MEL-2, 27.8 µM (inactive); in the experiment on SK-OV-3, > 100 µM (inactive); in the experiment on A549, 30.1 µM (inactive); with HCT-15 it was 36.6 µM.
Take `CC(=O)O[C@]1(C)OC(=O)[C@@H](C)N1[N+](=O)[O-]`: the GI50 was > 100 µM (inactive) with TK-10; > 100 µM (inactive) with RPMI-8226; 34.9 µM (inactive) in the experiment with SR; > 100 µM (inactive) with OVCAR-8; > 100 µM (inactive) with UO-31; > 100 µM (inactive) in the experiment on U-251. Further, the GI50 in the experiment on SNB-75 was 57.1 µM (inactive); with SN12C, > 100 µM (inactive); in the experiment on A498, > 100 µM (inactive); with 786-0 it was > 100 µM (inactive); with HCC 2998, > 100 µM (inactive); in the experiment on SK-MEL-2, > 100 µM (inactive). In addition, the GI50 in the experiment on SK-OV-3 was > 100 µM (inactive); in the experiment with A549, > 100 µM (inactive); in the experiment on HCT-15 it was above 100 µM.
In the case of `COC(=O)C(C)(C)/N=C/N(C)C`, the GI50 in the experiment on TK-10, in the experiment on SR, in the experiment on OVCAR-8, in the experiment on UO-31, in the experiment on U-251 and in the experiment on SF-268 was > 100 µM (inactive) in each case. Moreover, the GI50 with SNB-75, in the experiment on SN12C, with A498, with 786-0, with HCC 2998 and in the experiment on HOP-92 was > 100 µM (inactive) in each case. The GI50 in the experiment on SK-MEL-2 is > 100 µM (inactive); with SK-OV-3 it was > 100 µM (inactive); in the experiment with A549 it was > 100 µM (inactive); in the experiment on HCT-15, above 100 µM.
Take `O=C1Cc2ccccc2CCc2ccsc21`: the GI50 with TK-10, with RPMI-8226, with SR, with OVCAR-8, with UO-31 and in the experiment with U-251 was > 100 µM (inactive) in each case. The GI50 in the experiment on SF-268 is > 100 µM (inactive); in the experiment with SNB-75, 61.2 µM (inactive); with SN12C it was > 100 µM (inactive); in the experiment on A498 it was > 100 µM (inactive); in the experiment on 786-0, > 100 µM (inactive); with HCC 2998, > 100 µM (inactive). The GI50 is 40 µM (inactive) in the experiment with HOP-92; > 100 µM (inactive) in the experiment on SK-MEL-2; > 100 µM (inactive) in the experiment with SK-OV-3; > 100 µM (inactive) with A549; above 100 µM with HCT-15.
Turning to `O=C(Nc1ccc(Nc2ccc(NC(=O)c3ccccc3)c3c2C(=O)c2ccccc2C3=O)c2c1C(=O)c1ccccc1C2=O)c1ccccc1`, the GI50 in the experiment with TK-10, with RPMI-8226, with SR, in the experiment on OVCAR-8, in the experiment with UO-31 and in the experiment on U-251 was > 100 µM (inactive) each time. For the same compound, the GI50 in the experiment with SF-268 is > 100 µM (inactive); in the experiment with SNB-75, 35.6 µM (inactive); in the experiment on SN12C it was > 100 µM (inactive); in the experiment on A498 it was > 100 µM (inactive); in the experiment on 786-0, 52.5 µM (inactive); in the experiment on HCC 2998, > 100 µM (inactive). The GI50 with SK-MEL-2 was > 100 µM (inactive); in the experiment on SK-OV-3, > 100 µM (inactive); in the experiment with A549 it was > 100 µM (inactive); in the experiment on HCT-15 it was above 100 µM.
Regarding `NCCOc1ccc(/C(=C(/Cl)c2ccccc2)c2ccccc2)cc1`, the GI50 in the experiment with TK-10 was 12.9 µM (inactive); in the experiment on RPMI-8226, 3.17 µM (inactive); with SR, 3.21 µM (inactive); in the experiment on OVCAR-8, 14 µM (inactive); with UO-31, 9.16 µM (inactive); in the experiment with U-251, 10.9 µM (inactive). Also, the GI50 is 13.2 µM (inactive) with SF-268; 11.4 µM (inactive) in the experiment with SNB-75; 9.66 µM (inactive) in the experiment on SN12C; 19.1 µM (inactive) with A498; 7.94 µM (inactive) with 786-0; 4.34 µM (inactive) with HCC 2998. In addition, the GI50 in the experiment on HOP-92 is 5.18 µM (inactive); in the experiment on SK-MEL-2 it was 14.4 µM (inactive); in the experiment on SK-OV-3, 16.9 µM (inactive); with A549, 16 µM (inactive); in the experiment with HCT-15, 6.55 µM.
In the case of `Cc1cnoc1/N=C1\C=C(Nc2oncc2C)C(=O)c2ccccc21`, the GI50 in the experiment with TK-10 was > 100 µM (inactive); in the experiment with RPMI-8226 it was > 100 µM (inactive); in the experiment on SR it was > 100 µM (inactive); in the experiment on OVCAR-8, 30.8 µM (inactive); in the experiment with UO-31, 62.1 µM (inactive); in the experiment on U-251 it was > 100 µM (inactive). Besides, the GI50 in the experiment with SF-268, with SNB-75, in the experiment with SN12C, with A498, in the experiment on 786-0 and in the experiment on HCC 2998 was > 100 µM (inactive) each time. Moreover, the GI50 in the experiment with HOP-92 is > 100 µM (inactive); in the experiment on SK-MEL-2, > 100 µM (inactive); in the experiment with SK-OV-3, > 100 µM (inactive); with A549, > 100 µM (inactive); in the experiment with HCT-15, 73.1 µM.
Take `N#CCCC[Si]12OCCN(CCO1)CCO2`: the GI50 with TK-10, with RPMI-8226, with SR, with OVCAR-8, in the experiment with UO-31 and with U-251 was > 100 µM (inactive) in each case. In addition, the GI50 with SF-268, in the experiment on SNB-75, in the experiment on SN12C, with A498, in the experiment with 786-0 and with HCC 2998 was > 100 µM (inactive) throughout. Moreover, the GI50 in the experiment on HOP-92, with SK-MEL-2, with SK-OV-3 and with A549 was > 100 µM (inactive) in each case.
For `O=C1c2ccc3c4ccccc4n(-c4ccccc4)c3c2C(=O)N1c1ccc(Cl)cc1`, the GI50 in the experiment with TK-10, in the experiment on SR, in the experiment on OVCAR-8, with UO-31, in the experiment on U-251 and with SF-268 was > 100 µM (inactive) in each case. Further, the GI50 was > 100 µM (inactive) with SNB-75; > 100 µM (inactive) in the experiment with SN12C; > 100 µM (inactive) in the experiment with A498; > 100 µM (inactive) in the experiment with 786-0; > 100 µM (inactive) in the experiment with HCC 2998; 37.3 µM (inactive) with HOP-92. The GI50 with SK-MEL-2 was > 100 µM (inactive); in the experiment on SK-OV-3, > 100 µM (inactive); with A549 it was > 100 µM (inactive); in the experiment with HCT-15, above 100 µM.
